{
  "source": "patent EP1224299B1",
  "about": "“RECOMBINANT PROTEINS AND PEPTIDES FOR ENDOTOXIN BIOSENSORS, ENDOTOXIN REMOVAL, AND ANTI-MICROBIAL AND ANTI-ENDOTOXIN THERAPEUTICS” (priority 1999, dated 2001)",
  "key": {"P. aeruginosa ATCC 27853": {"tested_on": "P. aeruginosa ATCC 27853", "assay": "Killing rate assay", "assay_type": "cell-based", "conditions": "0.06 µg/ml, initial 10^9 cfu/ml; concentration achieving MBC90", "source_text": "The killing rate assay was adapted from the MBC test above, with different contact time of peptides with the bacteria arrested at regular intervals and plated for colony count. An initial density of 10^9 cfu/ml was used. […] This is one of the important features of an effective therapeutic agent."}, "[1]": {"assay": "Limulus Kinetic-QCL assay, inhibition of endotoxin-induced LAL reaction", "assay_type": "biochemical, E.coli 055:B5", "conditions": "200 EU/ml LPS, 1 h at 37 °C, 1000-fold dilution; read-out: 50% endotoxin-neutralizing concentration (ENC50)", "source_text": "The Limulus Kinetic-QCL is a quantitative, kinetic assay for the detection of gram-negative bacterial endotoxin. This assay utilizes the initial part of LAL endotoxin reaction to activate an enzyme, which in turn releases p-nitroaniline from a synthetic substrate, producing a yellow color. The time required before the appearance of a yellow color is inversely proportional to the amount of endotoxin present. Throughout the assay, the absorbance at 405 nm of each well of the microplate was monitored. Using the initial absorbance reading of each well as its own blank, the time required for the absorbance to increase 0.200 absorbance units were calculated as Reaction Time.\nBriefly, 25 µl of endotoxin solution (LPS, E.coli 055:B5) at 200 EU/ml was mixed with an equal volume of SSCrFCES at 1 µM, in a series of 2-fold dilutions in LAL reagent water in disposable endotoxin-free glass dilution tubes (BioWhittaker) and incubated at 37°C for one hour. […] The endotoxin activity was then quantified with Limulus Kinetic-QCL. […] The plate was then pre-incubated for > 10 minutes in a temperature-controlled ELISA plate reader. […] The absorbance at 405 nm of each well of the microtitre plate was monitored at time intervals of 5 minutes over a period of 2 hours. A 5 second automix was activated prior to reading. […]\nThe high sensitivity of the assay allowed for very low levels of endotoxin to be detected. […]"}, "[2]": {"assay": "LPS-induced lethality in galactosamine-sensitized mice", "assay_type": "in vivo, C57BL/6J mice", "conditions": "for protection: 25 and 75 µg peptide; for decrease in LPS-induced lethality: 25 or 75 µg, pre-incubated with LPS 30 min prior to i.p. injection", "protocol": "The anti-endotoxin potency of SSCrFCES was investigated in C57BL/6J mice. Mice are typically resistant to endotoxin. However, the sensitivity of mice to endotoxin can be enhanced > 1,000-fold by co-injection with a liver-specific inhibitor, galactosamine (31). In our study, intraperitoneal (i.p.) injection of 2.5 ng of E. coli 055:B5 LPS together with 15 mg of galactosamine hydrochloride in 0.2 ml of saline induced nearly 100% lethality in 18-25 g C57BL/6J mice within 7 hours. Various concentrations of SSCrFCES (1, 2, and 4 µM) and synthetic peptides (25 and 75 µg) were injected intravenously (i.v.) through tail vein 10 minutes after i.p. injection of the LPS-galactosamine mixture. Lethality was observed over 3 days after injection. Statistical analysis were performed using the Kaplan-Meier test (32) and log rank pairwise test."}, "[3]": {"assay": "Hill's plot for interaction between synthetic peptides and lipid A", "assay_type": "binding"}, "[4]": {"tested_on": "30 clinical strains of P. aeruginosa", "assay": "Microbicidal concentration (MBC) assay, 30 clinical strains", "assay_type": "cell-based", "conditions": "for MBC50: concentration of peptide required to kill 50% of the strains", "protocol": "Test strains cultured on Mueller-Hinton agar (MHA, Becton Dickinson, USA) were inoculated into 10 ml Mueller-Hinton broth (MHB, Becton Dickinson, USA) and grown overnight at 37°C in a shaker incubator (Model 4536, Forma Scientific, Inc., USA) at 230 rpm. Overnight broth cultures were diluted to give a final cell density of 10^5 colony forming units/ml (cfu/ml). One hundred microliters of the bacterial suspension was dispensed into sterile polypropylene 8-strip PCR-tubes (Quality Scientific Plastics, USA). Eleven microliters of serially diluted sushi peptides, ranging in final concentrations of 0.03-4 µg/ml, were then added. The peptides were constituted at 10 times the required test concentrations in 0.01% acetic acid and 0.2% bovine serum albumin (BSA). Positive controls were cultures without test peptides. Uninoculated MHB was used as negative control. All tests were carried out in triplicate.\nCultures were incubated at 37°C for 18-24 h, with the PCR-tubes held in horizontal position and shaken at 230 rpm. Cell counts were determined by standard drop-count method. The killing efficiency for the four sushi peptides were calculated based on standard drop-count method."}, "Human erythrocytes": {"tested_on": "Human erythrocytes", "assay": "Hemolysis assay, human erythrocytes", "assay_type": "cell-based", "conditions": "for Concentration of peptide to induce 50% haemolysis: red cells of human; for Hemolytic activity: at 100 µg/ml, 0.4% erythrocytes, 1 h", "protocol": "Human and rabbit erythrocytes were both used to test the hemolytic activities of the peptides. Whole blood was collected in heparinized sterile syringe, transferred to sterile borosilicate tube and centrifuged at 1200 g for 5 minutes at 4°C. The supernatant including the leukocytes above the erythrocyte pellet was discarded. The erythrocytes were washed 3 times using three volumes of pre-chilled pyrogen-free saline (PFS). An erythrocyte suspension at 0.4% was prepared for the hemolysis assay. Serial two-fold dilutions of the peptides was prepared in PFS and 100 µl aliquots were added to equal volumes of 0.4% erythrocyte solution in a 96-well microtiter plate (Nunclon™ Δ surface, Nunc) to give final peptide concentrations ranging from 6 to 100 µg/ml. The mixtures were incubated at 37°C for 1 h. The intact erythrocytes were then pelleted by centrifuging at 1000 g for 5 min. One hundred µl of the supernatant was transferred to a new 96-well microtiter plate and the amount of hemoglobin released into the supernatant was determined by reading the absorbance at 414nm using a SPECTRAmax™ 340 plate reader with SOFTmax PRO™ version 1.2.0. A positive control with 100 µl of 0.4% erythrocyte lysed in 1% Triton-X 100 was taken as 100% lysis. The negative control was the erythrocytes in PFS alone, which gave minimal lysis. This was taken as 0%."}, "[5]": {"conditions": "ligand LPS S. minnesota Re595; read-out: Equilibrium constant; cited from earlier work"}, "P.aeruginosa": {"tested_on": "P.aeruginosa", "conditions": "cited from earlier work"}},
  "note": "Like-named read-outs stand apart in the source and are kept apart here. Ends that are not written are not given here. Peptide text beside a SMILES is read from it.",
  "data": [
    {"compound": "CC[C@H](C)[C@H](NC(=O)[C@H](CCCNC(=N)N)NC(=O)[C@H](C)NC(=O)[C@H](CCSC)NC(=O)CNC(=O)[C@H](CCCCN)NC(=O)[C@H](CC(C)C)NC(=O)[C@H](CCCCN)NC(=O)[C@H](Cc1ccccc1)NC(=O)CN)C(=O)N[C@@H](CO)C(=O)N[C@@H](CS)C(=O)N[C@@H](CC(C)C)C(=O)N1CCC[C@H]1C(=O)N[C@@H](CC(N)=O)C(=O)NCC(=O)N[C@@H](CCC(N)=O)C(=O)N[C@@H](Cc1c[nH]c2ccccc12)C(=O)N[C@@H](CO)C(=O)N[C@@H](CC(N)=O)C(=O)N[C@@H](Cc1ccccc1)C(=O)N1CCC[C@H]1C(=O)N1CCC[C@H]1C(=O)N[C@@H](CCCCN)C(=O)N[C@@H](CS)C(=O)N[C@H](C(=O)N[C@@H](CCCNC(=N)N)C(=O)N[C@@H](CCC(=O)O)C(=O)N[C@@H](CS)C(=O)N[C@@H](C)C(=O)N[C@@H](CCSC)C(=O)N[C@H](C(=O)N[C@@H](CO)C(=O)N[C@@H](CO)C(=O)O)C(C)C)[C@@H](C)CC", "note": "[S1] (H-GFKLKGMARISCLPNGQWSNFPPKCIRECAMVSS-OH; N-terminus and C-terminus assumed)", "values": [
      {"measurement": "Killing rate (time to MBC90)", "setting": "P. aeruginosa ATCC 27853", "result": 7, "unit": "min"},
      {"measurement": "EC50", "setting": "[1]", "result": 2.25, "unit": "µM"},
      {"measurement": "protection", "setting": "[2]", "result": "22-100%"},
      {"measurement": "decrease in LPS-induced lethality", "setting": "[2]", "result": "20-55%"},
      {"measurement": "Hill's plot co-operativity n", "setting": "[3]", "result": 2.42},
      {"measurement": "MBC90", "setting": "[4]", "result": 0.008, "unit": "µM"},
      {"measurement": "MBC50", "setting": "[4]", "result": "≤0.03", "unit": "µg/mL"},
      {"measurement": "Concentration of peptide to induce 50% haemolysis", "setting": "Human erythrocytes", "result": 290, "unit": "µg/mL"}
    ]},
    {"compound": "CC[C@H](C)[C@H](NC(=O)[C@H](CCCCN)NC(=O)[C@H](C)NC(=O)[C@H](CCCCN)NC(=O)CNC(=O)[C@H](CCCCN)NC(=O)[C@H](CC(C)C)NC(=O)[C@H](CCCCN)NC(=O)[C@H](Cc1ccccc1)NC(=O)CN)C(=O)N[C@@H](CO)C(=O)N[C@@H](CS)C(=O)N[C@@H](CC(C)C)C(=O)N1CCC[C@H]1C(=O)N[C@@H](CC(N)=O)C(=O)NCC(=O)N[C@@H](CCC(N)=O)C(=O)N[C@@H](Cc1c[nH]c2ccccc12)C(=O)N[C@@H](CO)C(=O)N[C@@H](CC(N)=O)C(=O)N[C@@H](Cc1ccccc1)C(=O)N1CCC[C@H]1C(=O)N1CCC[C@H]1C(=O)N[C@@H](CCCCN)C(=O)N[C@@H](CS)C(=O)N[C@H](C(=O)N[C@@H](CCCNC(=N)N)C(=O)N[C@@H](CCC(=O)O)C(=O)N[C@@H](CS)C(=O)N[C@@H](C)C(=O)N[C@@H](CCSC)C(=O)N[C@H](C(=O)N[C@@H](CO)C(=O)N[C@@H](CO)C(=O)O)C(C)C)[C@@H](C)CC", "note": "[S1Δ] (H-GFKLKGKAKISCLPNGQWSNFPPKCIRECAMVSS-OH; N-terminus and C-terminus assumed)", "values": [
      {"measurement": "Killing rate (time to MBC90)", "setting": "P. aeruginosa ATCC 27853", "result": 7, "unit": "min"},
      {"measurement": "EC50", "setting": "[1]", "result": 0.875, "unit": "µM"},
      {"measurement": "protection", "setting": "[2]", "result": "22-100%"},
      {"measurement": "decrease in LPS-induced lethality", "setting": "[2]", "result": "20-55%"},
      {"measurement": "MBC90", "setting": "[4]", "result": 0.016, "unit": "µM"},
      {"measurement": "MBC50", "setting": "[4]", "result": "≤0.03", "unit": "µg/mL"},
      {"measurement": "MBC90", "setting": "[4]; concentration of peptide required to kill 90% of the strains", "result": 0.06, "unit": "µg/mL"},
      {"measurement": "Concentration of peptide to induce 50% haemolysis", "setting": "Human erythrocytes", "result": 295, "unit": "µg/mL"}
    ]},
    {"compound": "BPI pep85-99 (15 mer): 15 mer peptide of BPI (IKISGKWKAQKRFLK; UniProt P17213 116-130, looked up, fragment)", "values": [
      {"measurement": "Kd", "setting": "[5]", "result": 1.76, "unit": "µM"}
    ]},
    {"compound": "HAEHKVKIGVEQKYGQFPQGTEVTYTCSGNYFLM [S3]", "values": [
      {"measurement": "Concentration of peptide to induce 50% haemolysis", "setting": "Human erythrocytes", "result": 160, "unit": "µg/mL"}
    ]},
    {"compound": "HAEHKVKIKVKQKYGQFPQGTEVTYTCSGNYFLM [S3Δ]", "values": [
      {"measurement": "Hemolytic activity", "setting": "Human erythrocytes", "result": 35, "unit": "%"},
      {"measurement": "Hemolytic activity", "setting": "Human erythrocytes; listed as SΔ3", "result": 35, "unit": "% at 100 µg/ml"},
      {"measurement": "Concentration of peptide to induce 50% haemolysis", "setting": "Human erythrocytes", "result": 120, "unit": "µg/mL"}
    ]},
    {"compound": "Indolicin: cationic peptide (ILPWKWPWWPWRR; ends and bridges not checked; UniProt P33046 131-143, looked up)", "values": [
      {"measurement": "MBC50", "setting": "P.aeruginosa", "result": 64, "unit": "µg/mL"},
      {"measurement": "MBC90", "setting": "P.aeruginosa", "result": ">128", "unit": "µg/mL"}
    ]},
    {"compound": "Magainin II", "values": [
      {"measurement": "MBC50", "setting": "P.aeruginosa", "result": 64, "unit": "µg/mL"}
    ]},
    {"compound": "Nisin", "values": [
      {"measurement": "MBC50", "setting": "P.aeruginosa", "result": 128, "unit": "µg/mL"}
    ]},
    {"compound": "Ranalexin", "values": [
      {"measurement": "MBC50", "setting": "P.aeruginosa", "result": ">128", "unit": "µg/mL"}
    ]}
  ]
}
